Measurements taken from patent US20120208781A1, “AMINOGLYCOSIDE DOSING REGIMENS” (Achaogen, Inc., priority 2009, published 2012).
Values after ≈ are worked out from the molar mass of the structure shown. One block for each molecule: values may come before it.

Columns and labels:
[1] = test system: E. coli; experiment: MIC, further Brooklyn patient isolates: E. coli; type: cell-based; set-up: unit not given beside the values; settings: E. coli (n = 3071)
Method: (§1) Minimum inhibitory concentrations (MIC) were determined by reference Clinical and Laboratory Standards Institute (CLSI) broth microdilution methods per M7-A7 [2006]. Briefly, serial two-fold dilutions of Compound 1 and comparator AGs (together, “the test compounds”) were prepared at 2× concentration in appropriate diluent. The dilutions were mixed in 96-well assay plates with bacterial inoculum. Bacteria were suspended in sterile saline and added to each assay plate to obtain a final concentration of 5.5×10^5 CFU/mL. The plates were incubated at 35° C. for 20 hours in ambient air. […] After incubation, assay plates were read using a microtiter plate reader at 600 nm.
(§2) Further studies analyzed a greater number of unique patient isolates obtained from Brooklyn, N.Y. hospitals (including those species described above). These species included Acinetobacter, E. coli, Enterobacter, Klebsiella, and Pseudomonas.

[2] = test system: Enterobacter; experiment: MIC, further Brooklyn patient isolates: Enterobacter; type: cell-based; set-up: unit not given beside the values; settings: Enterobacter (n = 206)
Method: as §1, §2

[3] = test system: P. aeruginosa (PA); experiment: MIC, broth microdilution, Brooklyn hospital isolates: P. aeruginosa; type: cell-based; settings: PA (n = 33)
Method: (§3) In another study, the activity of Compound 1 against a collection of contemporary Gram-negative bacteria was determined. Unique patient isolates of P. aeruginosa (PA), A. baumannii (AB), K. pneumoniae (KP), E. coli (EC), and Enterobacter spp. (EB) from prior surveys at 16 Brooklyn, N.Y. hospitals were selected based on resistance patterns. The majority of isolates were fingerprinted by automated ribotyping. MICs were performed by broth microdilution. PCR was used to identify aminoglycoside-modifying enzymes (AMEs) in AB and KP and the KPC gene in Enterobacteriaceae (EN). The expression of the efflux genes mexA, C, E and X in PA, and adeB in AB was assessed by real-time RT-PCR.

[4] = test system: A. baumannii (AB); experiment: MIC, broth microdilution, Brooklyn hospital isolates: A. baumannii; type: cell-based; settings: AB (n = 38)
Method: as §3

[5] = test system: K. pneumoniae (KP); experiment: MIC, broth microdilution, Brooklyn hospital isolates: K. pneumoniae; type: cell-based; settings: KP (n = 71)
Method: as §3

[6] = test system: E. coli (EC); experiment: MIC, broth microdilution, Brooklyn hospital isolates: E. coli; type: cell-based; settings: EC (n = 32)
Method: as §3

[7] = test system: Enterobacter spp. (EB); experiment: MIC, broth microdilution, Brooklyn hospital isolates: Enterobacter spp.; type: cell-based; settings: EB (n = 30)
Method: as §3

[8] = test system: rat kidney; experiment: Rat nephrotoxicity model: serum markers of GFR (BUN, serum creatinine); type: in vivo, Sprague-Dawley rats; settings: dose-response for BUN elevation
[9] = test system: rat kidney; experiment: Rat nephrotoxicity model: kidney histopathology (H&E); type: in vivo, Sprague-Dawley rats; settings: rats, 14 d once-daily
Method: This rat nephrotoxicity study design used 14 days of once-daily dosing of aminoglycosides in adult Sprague-Dawley rats. Rats were allowed full access to food and water, and aminoglycosides were dosed subcutaneously at 1 mL/kg dosing volume, formulated in water. Nephrotoxicity was assessed by monitoring changes in serum markers of glomerular filtration rate (GFR), namely blood urea nitrogen (BUN) and serum creatinine. Microscopic examination of kidney slices after fixation and hematoxylin and eosin (H&E) staining was also utilized, scoring for tubular dilation, cellular casts, interstitial inflammation, and regenerative changes to the tubules.

MIC50 [1]: ≦0.25 | MIC50 [2]: ≦0.25
SMILES: CO/N=C(\C(=O)N[C@@H]1C(=O)N2C(C(=O)O)=C(CSc3nc(=O)c(O)nn3C)CS[C@H]12)c1csc(N)n1 [CRO]

MIC50 [1]: ≦0.25
SMILES: CC(C)(O/N=C(\C(=O)N[C@@H]1C(=O)N2C(C(=O)[O-])=C(C[n+]3ccccc3)CS[C@H]12)c1csc(N)n1)C(=O)O [CAZ, ceftazidime]

MIC50 ([3]; Pseudomonas aeruginosa): 4 µg/mL (≈ 13.4 µM) | MIC90 ([3]; Pseudomonas aeruginosa): > 8 µg/mL | MIC50 ([4]; Acinetobacter baumannii): 4 µg/mL (≈ 13.4 µM) | MIC90 ([4]; Acinetobacter baumannii): > 8 µg/mL | MIC50 ([5]; Klebsiella pneumoniae): 0.25 µg/mL (≈ 0.835 µM) | MIC90 ([5]; Klebsiella pneumoniae): > 8 µg/mL | MIC50 ([6]; Escherichia coli): 0.125 µg/mL (≈ 0.418 µM) | MIC90 ([6]; Escherichia coli): 4 µg/mL (≈ 13.4 µM) | MIC50 ([7]; Enterobacter): 0.5 µg/mL (≈ 1.67 µM) | MIC90 ([7]; Enterobacter): 2 µg/mL (≈ 6.68 µM)
SMILES: C[C@@H](O)[C@H]1C(=O)N2C(C(=O)O)=C(SCCN=CN)C[C@H]12 [Imipenem]
Susceptible [3]: 55% | Susceptible [4]: 55% | Susceptible [5]: 79% | Susceptible [6]: 91% | Susceptible [7]: 93%

SMILES: NC[C@@H]1O[C@H](O[C@H]2[C@@H](O)[C@H](O[C@@H]3[C@@H](O)[C@H](N)C[C@H](N)[C@H]3O[C@H]3O[C@H](CO)[C@@H](O)[C@H](O)[C@H]3N)O[C@@H]2CO)[C@H](N)[C@@H](O)[C@@H]1O [Paromomycin, paromomycin]
apparent relative nephrotoxicity (ranking) [8]: Neomycin≈Gentamicin>Tobramycin>Apramycin≈Paromomycin>Amikacin | Histopathology score (0 to 5 Scale): Casts ([9]; 30 mg/kg): 0 +/− 0 | Histopathology score (0 to 5 Scale): Dilation ([9]; 30 mg/kg): 1 +/− 1 | Histopathology score (0 to 5 Scale): Inflammation ([9]; 30 mg/kg): 1.4 +/− 0.9 | Histopathology score (0 to 5 Scale): Regeneration ([9]; 30 mg/kg): 1.4 +/− 0.5 | Histopathology score (0 to 5 Scale): Casts ([9]; 100 mg/kg): 2.6 +/− 0.5 | Histopathology score (0 to 5 Scale): Dilation ([9]; 100 mg/kg): 3.2 +/− 0.4 | Histopathology score (0 to 5 Scale): Inflammation ([9]; 100 mg/kg): 3 +/− 0 | Histopathology score (0 to 5 Scale): Regeneration ([9]; 100 mg/kg): 4 +/− 0 | Histopathology score (0 to 5 Scale): Casts ([9]; 300 mg/kg): 0 +/− 0 | Histopathology score (0 to 5 Scale): Dilation ([9]; 300 mg/kg): 0 +/− 0 | Histopathology score (0 to 5 Scale): Inflammation ([9]; 300 mg/kg): 0 +/− 0 | Histopathology score (0 to 5 Scale): Regeneration ([9]; 300 mg/kg): 0 +/− 0
